Experimental data from US11911628B2, “Electrostatic drug delivery” (NANO HESGARSAZAN SALAMAT ARYA INCUBATION CENTER FOR MEDICAL …, priority 2019, dated 2024).
Entries after “also recorded” stand apart in the source; their conditions may differ.

Test system: MC4L2 mice tumor
Assay: MC4L2 mice tumor treated with drug with or without electrostatic field, tumor followed by sonography
Assay type: in vivo
Conditions: for reduction in tumor volume: without electrostatic field
Description: Here, three injection periods of Cisplatin were carried out every 3 days for a group of mice having a MC4L2 mice tumor as an example of triple-positive breast cancer. About 20 mg/kg of Cisplatin was applied for a Control sample with a MC4L2 mice tumor without applying an electrostatic field. In each period, about 5 mg/kg of Cisplatin was applied for a sample mouse No. 1 with a MC4L2 mice tumor, and then followed by applying an electrostatic field with an intensity in a range of −60 V to −120 V according to exemplary method 100 or exemplary method 110, described hereinabove, utilizing a conductive patch similar to electrically conductive element 304 on mice skin near the MC4L2 tumor site, and applying direct current (DC) electrostatic field utilizing a Van de Graaff device.
All sonography images were taken after about 10 days of treatments, and all drug injections were done every about 3 days.

Row | Compound | tumor after treatment (sonography) (about 5 mg/kg Cisplatin per period, then DC electrostatic field -60 V to -120 V via conductive patch, three periods every 3 days) | reduction in tumor volume (about 20 mg/kg Cisplatin, injections every 3 days, sonography) | tumor after treatment (sonography) (about 1 mg/kg Doxorubicin per period, then DC electrostatic field 60 V to 120 V via conductive patch, four periods every 3 days) | reduction in tumor volume (about 10 mg/kg Doxorubicin, sonography after about 10 days)
1 | N.N.[Cl][Pt][Cl] [Cisplatin] | no observable trace of tumor; also recorded: removed completely | about 60% | – | –
2 | COc1cccc2c1C(=O)c1c(O)c3c(c(O)c1C2=O)C[C@@](O)(C(=O)CO)C[C@@H]3O[C@H]1C[C@H](N)[C@H](O)[C@H](C)O1 [Doxorubicin] | – | – | no observable trace of tumor; also recorded: removed completely | about 75%
